# Experimental data as given in the supplement of paper PMC10307832.
# Columns and labels:
# Test in all cases: relative viability (nuclei count vs DMSO), 5 days (fraction); higher = more cells survive
# IPA-3 + Palbociclib = compound: C1=CC=C2C(=C1)C=CC(=C2SSC3=C(C=CC4=CC=CC=C43)O)O [IPA-3] + CC(=O)c1c(C)c2cnc(Nc3ccc(N4CCNCC4)cn3)nc2n(C2CCCC2)c1=O [Palbociclib] (partner 0.5 µM)
# Outline: (§1)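 Values are medians from duplicate plates. Each reflects relative viability, defined as the nuclei count of treated wells over that of vehicle wells. Lung cancer cell lines in 1536-well plates were pin-tool dosed one day after seeding with one drug alone or with a fixed anchor-drug dose plus five library-drug doses (not always all listed) in √10 steps, then fixed, stained and imaged at 4× after 5 days.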
# Doramapimod + Phenformin = compound: Cc1ccc(-n2nc(C(C)(C)C)cc2NC(=O)Nc2ccc(OCCN3CCOCC3)c3ccccc23)cc1 [Doramapimod] + N=C(N)NC(=N)NCCc1ccccc1 [Phenformin] (partner 250 µM)
# Outline: as §1
# Doramapimod + Olaparib = compound: Cc1ccc(-n2nc(C(C)(C)C)cc2NC(=O)Nc2ccc(OCCN3CCOCC3)c3ccccc23)cc1 [Doramapimod] + O=C(c1cc(Cc2n[nH]c(=O)c3ccccc23)ccc1F)N1CCN(C(=O)C2CC2)CC1 [Olaparib] (partner 8 µM)
# Outline: as §1
# RAF265 + Phenformin = compound: Cn1c(Nc2ccc(C(F)(F)F)cc2)nc2cc(Oc3ccnc(-c4ncc(C(F)(F)F)[nH]4)c3)ccc21 [RAF265] + N=C(N)NC(=N)NCCc1ccccc1 [Phenformin] (partner 250 µM)
# Outline: as §1
Cell Line,relative viability (IPA-3 + Palbociclib; first compound 0.2 µM),relative viability (IPA-3 + Palbociclib; first compound 0.6325 µM),relative viability (IPA-3 + Palbociclib; first compound 2 µM),relative viability (IPA-3 + Palbociclib; first compound 6.325 µM),relative viability (IPA-3 + Palbociclib; first compound 20 µM),relative viability (Doramapimod + Phenformin; first compound 0.02 µM),relative viability (Doramapimod + Phenformin; first compound 0.06325 µM),relative viability (Doramapimod + Phenformin; first compound 0.2 µM),relative viability (Doramapimod + Phenformin; first compound 0.6325 µM),relative viability (Doramapimod + Phenformin; first compound 2 µM),relative viability (Doramapimod + Olaparib; first compound 0.02 µM),relative viability (Doramapimod + Olaparib; first compound 0.06325 µM),relative viability (Doramapimod + Olaparib; first compound 0.2 µM),relative viability (Doramapimod + Olaparib; first compound 0.6325 µM),relative viability (Doramapimod + Olaparib; first compound 2 µM),relative viability (RAF265 + Phenformin; first compound 0.01 µM),relative viability (RAF265 + Phenformin; first compound 0.03162 µM),relative viability (RAF265 + Phenformin; first compound 0.1 µM),relative viability (RAF265 + Phenformin; first compound 0.3162 µM),relative viability (RAF265 + Phenformin; first compound 1 µM)
NCI-H1993,0.702,0.732,0.656,0.516,0.545,0.512,0.484,0.543,0.542,0.548,0.983,0.908,1.14,1.07,0.794,0.455,0.586,0.502,0.603,0.479
NCI-H23,0.477,0.4,0.486,0.486,0.542,0.786,0.781,0.788,0.828,0.656,0.397,0.352,0.417,0.335,0.311,0.754,0.749,0.669,0.544,0.59
NCI-H522,1.16,1.14,0.893,1.18,1.31,0.6,0.573,0.621,0.677,0.603,0.582,0.669,0.696,0.604,0.608,0.677,0.648,0.655,0.33,0.569
NCI-H1437,0.409,0.359,0.317,0.291,0.285,0.359,0.271,0.3,0.275,0.273,0.645,0.641,0.654,0.657,0.637,0.352,0.388,0.287,0.329,0.242
NCI-H1299,,,,,,,,,,,0.97,0.963,0.834,0.864,0.803,,,,,
NCI-H1563,,,,,,0.653,0.682,0.653,0.806,0.739,,,,,,0.676,0.674,0.66,0.64,0.623
NCI-H596,,,,,,0.672,0.689,0.672,0.795,0.703,0.747,0.695,0.749,0.73,0.788,0.869,0.833,0.691,0.689,0.489
Calu-6,,,,,,,,,,,0.589,0.6,0.622,0.554,0.557,,,,,
NCI-H1703,,,,,,,,,,,0.533,0.513,0.384,0.38,0.31,,,,,
EBC-1,,,,,,,,,,,0.664,0.69,0.689,0.675,0.558,,,,,
NCI-H1648,0.222,0.223,0.248,0.263,0.229,,,,,,0.99,0.664,0.8,0.981,0.552,,,,,
A549,,,,,,0.177,0.165,0.126,0.136,0.132,0.376,0.3,0.299,0.3,0.269,0.148,0.123,0.201,0.0774,0.0726
